{"source": "patent US9834512B2", "about": "“(22E)-2-methylene-26,27-cyclo-22-dehydro-1α-hydroxy-19-norvitamin D3 derivatives” (WISCONSIN ALUMNI RESEARCH FOUNDATION, priority 2011, dated 2017)", "key": {"Sprague-Dawley rats [1]": {"tested_on": "Sprague-Dawley rats", "test": "Intestinal calcium transport (everted gut sac)", "type": "in vivo, rat", "conditions": "for Intestinal calcium transport activity compared with native hormone: rat, intraperitoneal; for Intestinal calcium transport activity at very high doses: very high doses (e.g., 2340-2600 pmol)", "protocol": "(§1) Male, weanling Sprague-Dawley rats were placed on Diet 11 (0.47% Ca) diet+AEK oil for one week followed by Diet 11 (0.02% Ca)+AEK oil for 3 weeks. The rats were then switched to a diet containing 0.47% Ca for one week followed by two weeks on a diet containing 0.02% Ca. Dose administration began during the last week on 0.02% calcium diet. Four consecutive intraperitoneal doses were given approximately 24 hours apart. Twenty-four hours after the last dose, blood was collected from the severed neck and the concentration of serum calcium determined as a measure of bone calcium mobilization. The first 10 cm of the intestine was also collected for intestinal calcium transport analysis using the everted gut sac method.\n(§2) Antagonism was tested by administering a combination of 1,25(OH)2D3 and the putative antagonist to the animal simultaneously."}, "Sprague-Dawley rats [2]": {"tested_on": "Sprague-Dawley rats", "test": "Bone calcium mobilization (serum calcium)", "type": "in vivo, rat", "conditions": "for Bone calcium mobilization activity: rat, intraperitoneal, at the doses tested", "protocol": "as §1, §2"}, "[3]": {"tested_on": "24-hydroxylase (24OHase) gene promoter", "test": "In vitro 24-hydroxylase transcription assay (luciferase reporter, ROS 17/2.8 bone cells)", "type": "cell-based", "conditions": "for Antagonism of gene transactivation stimulated by native hormone: combined with 1,25(OH)2D3; for 24OHase Transcription (Relative Activity): native hormone value / working example value, same assay", "protocol": "Transcription activity was measured in ROS 17/2.8 (bone) cells that were stably transfected with a 24-hydroxylase (24OHase) gene promoter upstream of a luciferase reporter gene (Arbour et al., 1998). Cells were given a range of doses. Sixteen hours after dosing, the cells were harvested and luciferase activities were measured using a luminometer. RLU=relative luciferase units."}, "HL-60 cells": {"tested_on": "HL-60 cells", "test": "HL-60 differentiation (nitro blue tetrazolium reduction)", "type": "cell-based, human", "conditions": "for EC50: Homo sapiens, HL-60; for HL-60 cell differentiation activity: compound alone; for HL-60 Differentiation (Relative Activity): native hormone value / working example value, same assay", "protocol": "The study drugs were dissolved in ethanol and the concentrations determined using UV spectrophotometry. Serial dilutions were prepared so that a range of drug concentrations could be tested without changing the final concentration of ethanol (≦0.2%) present in the cell cultures.\nHuman promyelocytic leukemia (HL60) cells were grown in RPMI-1640 medium containing 10% fetal bovine serum. The cells were incubated at 37° C. in the presence of 5% CO2.\nHL60 cells were plated at 1.2×10^5 cells/ml. Eighteen hours after plating, cells in duplicate were treated with the drug. Four days later, the cells were harvested and a nitro blue tetrazolium reduction assay was performed (Collins et al., 1979; J. Exp. Med. 149:969-974). The percentage of differentiated cells was determined by counting a total of 200 cells and recording the number that contained intracellular black-blue formazan deposits. Verification of differentiation to monocytic cells was determined by measuring phagocytic activity (data not shown).\nAntagonism was tested by adding a combination of 1,25(OH)2D3 and the putative antagonist in the same well keeping the final ethanol concentration the same."}, "vitamin D receptor [4]": {"target": "T1, vitamin D receptor (Rattus norvegicus, UniProt P13053)", "T1 construct": "Full-length recombinant rat receptor was expressed in E. coli; His tag (C); made in house; host or cells: E. coli BL21(DE3) Codon Plus RIL", "T1 sequence (P13053 1-423)": "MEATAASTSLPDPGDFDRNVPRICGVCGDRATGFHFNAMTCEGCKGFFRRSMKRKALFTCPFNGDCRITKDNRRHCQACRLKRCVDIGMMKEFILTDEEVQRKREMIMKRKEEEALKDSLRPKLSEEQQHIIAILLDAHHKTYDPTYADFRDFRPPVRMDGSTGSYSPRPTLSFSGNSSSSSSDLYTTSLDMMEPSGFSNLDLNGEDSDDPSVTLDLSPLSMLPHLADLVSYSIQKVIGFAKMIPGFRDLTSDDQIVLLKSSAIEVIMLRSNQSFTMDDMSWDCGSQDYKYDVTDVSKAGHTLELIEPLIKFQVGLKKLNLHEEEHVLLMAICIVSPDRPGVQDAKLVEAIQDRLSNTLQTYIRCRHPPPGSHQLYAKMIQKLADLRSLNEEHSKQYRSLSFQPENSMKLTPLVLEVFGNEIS", "test": "Competitive vitamin D receptor binding", "conditions": "for Competitive VDR Binding (Relative Activity): native hormone value / working example value, same assay; for Competitive VDR Binding (Relative Activity) / Ki: present compounds; for Ki: read-out: Competitive VDR Binding, Ki; for Binding to the nuclear vitamin D receptor compared with native hormone: versus 1,25(OH)2D3; for VDR binding activity relative to CN-67 (ratio of relative activities): versus CN-67", "protocol": "Full-length recombinant rat receptor was expressed in E. coli BL21(DE3) Codon Plus RIL cells and purified to homogeneity using two different column chromatography systems. The first system was a nickel affinity resin that utilizes the C-terminal histidine tag on this protein. The protein that was eluted from this resin was further purified using ion exchange chromatography (S-Sepharose Fast Flow). Aliquots of the purified protein were quick frozen in liquid nitrogen and stored at −80° C. until use. For use in binding assays, the protein was diluted in TEDK50 (50 mM Tris, 1.5 mM EDTA, pH 7.4, 5 mM DTT, 150 mM KCl) with 0.1% Chaps detergent. The receptor protein and ligand concentration was optimized such that no more than 20% of the added radiolabeled ligand was bound to the receptor.\nUnlabeled ligands were dissolved in ethanol and the concentrations determined using UV spectrophotometry (1,25(OH)2D3: molar extinction coefficient=18,200 and λmax=265 nm; Analogs: molar extinction coefficient=42,000 and λmax=252 nm). Radiolabeled ligand (^3H-1,25(OH)2D3, ˜159 Ci/mmole) was added in ethanol at a final concentration of 1 nM.\nRadiolabeled and unlabeled ligands were added to 100 mcl of the diluted protein at a final ethanol concentration of ≦10%, mixed and incubated overnight on ice to reach binding equilibrium. The following day, 100 mcl of hydroxylapatite slurry (50%) was added to each tube and mixed at 10-minute intervals for 30 minutes. The hydroxylapaptite was collected by centrifugation and then washed three times with Tris-EDTA buffer (50 mM Tris, 1.5 mM EDTA, pH 7.4) containing 0.5% Titron X-100. After the final wash, the pellets were transferred to scintillation vials containing 4 ml of Biosafe II scintillation cocktail, mixed and placed in a scintillation counter. Total binding was determined from the tubes containing only radiolabeled ligand."}, "vitamin D receptor [5]": {"target": "T1, vitamin D receptor", "conditions": "compounds of U.S. Pat. No. 7,915,242; read-out: Competitive VDR Binding, Ki; cited from earlier work"}, "[6]": {"conditions": "combined with 1,25(OH)2D3, systemic administration"}, "[7]": {"conditions": "when administered with 1,25(OH)2D3, present compounds"}}, "note": "“Also recorded” adds a separate entry of the source. Like-named read-outs stand apart in the source and are kept apart here.", "data": [{"molecule": "C=C1[C@H](O)CC(=C/C=C2\\CCC[C@]3(C)[C@@H]([C@H](C)/C=C/C(=O)C4(C(=O)CCC(C)C)CC4)CC[C@@H]23)C[C@H]1O", "note": "[PP-48, (20R,22E)-2-methylene-25-(4-methylpentanoyl)-24-oxo-26,27-cyclo-22-dehydro-1α-hydroxy-19-norvitamin D3]", "values": [{"measurement": "Intestinal calcium transport activity at moderate doses", "setting": "Sprague-Dawley rats [1]; moderate doses", "value": "only PP-48 increased such transport significantly at moderate doses"}, {"measurement": "Intestinal calcium transport activity compared with native hormone", "setting": "Sprague-Dawley rats [1]", "value": "potency similar to that of the native hormone"}, {"measurement": "Intestinal calcium transport activity at very high doses", "setting": "Sprague-Dawley rats [1]", "value": "increased intestinal calcium transport activity at very high doses"}, {"measurement": "Bone calcium mobilization activity", "setting": "Sprague-Dawley rats [2]", "value": "essentially no ability to mobilize calcium from bone; also recorded: essentially inactive in releasing bone calcium stores; also recorded: neither PP-48 nor AS-51 demonstrate any appreciable ability to mobilize calcium from bone"}, {"measurement": "Antagonism of gene transactivation stimulated by native hormone", "setting": "[3]", "value": "no antagonistic activity"}, {"measurement": "24-hydroxylase transcription activity", "setting": "[3]; compound alone", "value": "agonistic behavior; also recorded: exhibits activity in 24-hydroxylase transcription, albeit reduced from the native hormone"}, {"measurement": "24OHase Transcription (Relative Activity)", "setting": "[3]; present compounds", "value": 0.1}, {"measurement": "EC50", "setting": "[3]; present compounds", "value": 2, "unit": "nM"}, {"measurement": "EC50", "setting": "HL-60 cells; present compounds", "value": 30, "unit": "nM"}, {"measurement": "HL-60 cell differentiation activity", "setting": "HL-60 cells", "value": "agonistic behavior; also recorded: active in causing HL-60 differentiation"}, {"measurement": "HL-60 Differentiation (Relative Activity)", "setting": "HL-60 cells; present compounds", "value": 0.1}, {"measurement": "Competitive VDR Binding (Relative Activity)", "setting": "vitamin D receptor [4]", "value": 0.17}, {"measurement": "Ki", "setting": "vitamin D receptor [4]", "value": 0.6, "unit": "nM"}, {"measurement": "Binding to the nuclear vitamin D receptor compared with native hormone", "setting": "vitamin D receptor [4]", "value": "lower affinity relative to 1,25(OH)2D3; also recorded: lower affinity than the native hormone; also recorded: bind the vitamin D receptor"}, {"measurement": "VDR binding activity relative to CN-67 (ratio of relative activities)", "setting": "vitamin D receptor [4]", "value": "≈ 11 times"}]}, {"molecule": "C=C1[C@H](O)CC(=C/C=C2\\CCC[C@]3(C)[C@@H]([C@H](C)/C=C/[C@@H](O)C4(C(=O)SCCCC)CC4)CC[C@@H]23)C[C@H]1O", "note": "[AS-51, (20R,22E,24R)-25-carbobutylsulfanyl-2-methylene-26,27-cyclo-22-dehydro-1α,24-dihydroxy-19-norvitamin D3]", "values": [{"measurement": "In vivo antagonism in combination with native hormone (intestinal calcium transport)", "setting": "Sprague-Dawley rats [1]; [6]", "value": "no antagonism was observed"}, {"measurement": "Intestinal calcium transport activity compared with native hormone", "setting": "Sprague-Dawley rats [1]", "value": "somewhat less active than 1,25(OH)2D3 in stimulating intestinal calcium transport at very high doses; also recorded: potency less than that of the native hormone at low doses"}, {"measurement": "Intestinal calcium transport activity at very high doses", "setting": "Sprague-Dawley rats [1]", "value": "increased intestinal calcium transport activity at very high doses"}, {"measurement": "In vivo antagonism in combination with native hormone (bone calcium mobilization)", "setting": "Sprague-Dawley rats [2]; [6]", "value": "no antagonism was observed"}, {"measurement": "Bone calcium mobilization activity", "setting": "Sprague-Dawley rats [2]", "value": "essentially inactive in releasing bone calcium stores; also recorded: neither PP-48 nor AS-51 demonstrate any appreciable ability to mobilize calcium from bone"}, {"measurement": "Concentrations showing inhibition of gene transactivation", "setting": "[3]; antagonist mode", "value": "10^−8-10^−7 M"}, {"measurement": "Times less potent than native hormone in increasing transcription of the 24-hydroxylase gene", "setting": "[3]; bone cells, versus 1,25(OH)2D3", "value": "~60", "unit": "times"}, {"measurement": "Antagonism of gene transactivation stimulated by native hormone", "setting": "[3]", "value": "can inhibit gene transactivation stimulated by the native hormone; also recorded: antagonistic activity; also recorded: inhibits gene transactivation stimulated by the native hormone"}, {"measurement": "24OHase Transcription (Relative Activity)", "setting": "[3]; present compounds", "value": 0.02}, {"measurement": "EC50", "setting": "[3]; present compounds", "value": 6, "unit": "nM"}, {"measurement": "24-hydroxylase transcription potency relative to CN-67 (ratio of relative activities)", "setting": "[3]; versus CN-67, bone cells", "value": "≈ 3"}, {"measurement": "24-hydroxylase transcription potency relative to OU-72 (ratio of relative activities)", "setting": "[3]; versus OU-72, bone cells", "value": 2}, {"measurement": "24OHase Transcription, antagonism", "setting": "[3]; [7]", "value": "Antagonistic"}, {"measurement": "EC50", "setting": "HL-60 cells; present compounds", "value": "> 1000", "unit": "nM"}, {"measurement": "Concentrations showing inhibition of cellular differentiation", "setting": "HL-60 cells; antagonist mode", "value": "10^−8-10^−7 M"}, {"measurement": "Inhibition of native hormone-induced HL-60 differentiation", "setting": "HL-60 cells; combined with 1,25(OH)2D3", "value": "potent inhibitor of the native hormone; also recorded: antagonistic activity"}, {"measurement": "HL-60 cell differentiation activity", "setting": "HL-60 cells", "value": "does not effectively promote cellular differentiation"}, {"measurement": "HL-60 Differentiation (Relative Activity)", "setting": "HL-60 cells; present compounds", "value": 0.002}, {"measurement": "HL-60 potency relative to CN-67 (ratio of relative activities)", "setting": "HL-60 cells; versus CN-67", "value": "≈ 0.03"}, {"measurement": "HL-60 potency relative to OU-72 (ratio of relative activities)", "setting": "HL-60 cells; versus OU-72", "value": "≈ 0.007"}, {"measurement": "HL-60 Differentiation, antagonism", "setting": "HL-60 cells; [7]", "value": "Antagonistic"}, {"measurement": "Competitive VDR Binding (Relative Activity)", "setting": "vitamin D receptor [4]", "value": 1.0}, {"measurement": "Ki", "setting": "vitamin D receptor [4]", "value": 0.1, "unit": "nM"}, {"measurement": "Binding to the nuclear vitamin D receptor compared with native hormone", "setting": "vitamin D receptor [4]", "value": "same potency as the native hormone; also recorded: bind the vitamin D receptor"}, {"measurement": "VDR binding activity relative to CN-67 (ratio of relative activities)", "setting": "vitamin D receptor [4]", "value": "≈ 67 times"}]}, {"molecule": "C=C1C(O)CC(=CC=C2CCCC3(C)C2CCC3C(C)C=CC(OCCCC)C2(C(=O)OCCCC)CC2)CC1O", "note": "[CN-67, (22E)-(24R)-24-butoxy-25-carbobutoxy-2-methylene-26,27-cyclo-22-dehydro-1α-hydroxy-19-norvitamin D3]", "values": [{"measurement": "Ki", "setting": "vitamin D receptor [5]", "value": 1.5, "unit": "nM"}]}, {"molecule": "C=C1C(O)CC(=CC=C2CCCC3(C)C2CCC3C(C)C=CC(O)C2(C(=O)OCCCC)CC2)CC1O", "note": "[OU-72, (22E)-(24R)-25-carbobutoxy-2-methylene-26,27-cyclo-22-dehydro-1α,24-dihydroxy-19-norvitamin D3]", "values": [{"measurement": "Ki", "setting": "vitamin D receptor [5]", "value": 0.023, "unit": "nM"}]}]}
